From patent US20230219965A1 (KSQ Therapeutics, Inc., priority 2020, published 2023) come the findings set out here.

Read-outs that look alike come from different tables or passages of the source. Where only a bound is given, the exact number is not on record here.

Usually solubility stands for how much of the substance goes into solution per volume. What is called IC50 is the concentration that inhibits the measured activity by half. By half-life is commonly meant the time needed for the level to fall by half in the phase considered. A low value points to rapid decline.

Data set [1] in a line: ADME solubility determination in PBS at pH 2.0 and pH 7.4. It is filed as physicochemical. The note with it: phosphate buffered saline, 25 °C, thermodynamic from solid. The gist of the method:
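Solubility was read by LC-MS/MS on centrifuged supernatants, calibrated to a known-concentration standard and corrected for dilution. Compound, dried down from 10 mM DMSO stock, was equilibrated 24 h at 25° C with shaking in PBS at pH 2.0 or pH 7.4.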

Data set [2] deals with Ub-PCNA levels in the nucleus of ES2 cells (USP1 activity). Put plainly: ES2 Ub-PCNA immunofluorescence (IF) assay. The conditions noted are these: Homo sapiens, ES-2; ES2 cells, 3 hours, Ub-PCNA immunofluorescence; read-out: USP1 IC50 (Ub-PCNA). It is filed as cell-based. The essentials:
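AC50 derived from percent Ub-PCNA-positive nuclei, positivity set by a 95% cutoff from untreated-well intensities. Readout by imaging immunofluorescence (anti-Ub-PCNA, DAPI nuclear mask) after methanol fixation. Compound exposure: 3 h at 37° C, 0.3% DMSO final, on cells plated overnight.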

The nature of data set [3]: Liver microsomal metabolic stability, rat liver microsomes (RLM). The note with it: rat, liver microsomes, t1/2 (min) in RLM, 1 μM compound, 1 mg/mL microsomes, NADPH. (Liver microsomes are vesicles of endoplasmic reticulum, rich in cytochrome P450 enzymes.)
Data set [4] in a line: Liver microsomal metabolic stability, human liver microsomes (HLM). The note with it: human, liver microsomes.
A further data set addresses USP1/UAF1 enzyme (Homo sapiens, UniProt O94782). Put plainly: USP1/UAF1 deubiquitination assay (ubiquitin-rhodamine 110 substrate). The note with it: read-out: USP1 IC50 (Ub-Rho). It is filed as biochemical. The gist of the method:
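Cleavage of 150 nM ubiquitin-rhodamine 110 by 0.05 nM USP1/UAF1 was followed as fluorescence (Ex480/Em540, kinetic, 30 min) in Tris-HCl pH 7.8 buffer with EDTA, BSA, DTT and Tween-20. Compounds, top 10 μM, were preincubated with enzyme 10 min; % inhibition against no-enzyme and DMSO wells gave four-parameter IC50s.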

Setting [5] is: pH 2, aqueous buffer, PBS pH 2.0, 25° C., read-out: Solubility at pH 2.0.
Where [6] appears, read: pH 7.4, aqueous buffer, PBS pH 7.4, 25° C., read-out: Solubility at pH 7.4.

USP1/UAF1 enzyme, sequence (O94782 whole entry): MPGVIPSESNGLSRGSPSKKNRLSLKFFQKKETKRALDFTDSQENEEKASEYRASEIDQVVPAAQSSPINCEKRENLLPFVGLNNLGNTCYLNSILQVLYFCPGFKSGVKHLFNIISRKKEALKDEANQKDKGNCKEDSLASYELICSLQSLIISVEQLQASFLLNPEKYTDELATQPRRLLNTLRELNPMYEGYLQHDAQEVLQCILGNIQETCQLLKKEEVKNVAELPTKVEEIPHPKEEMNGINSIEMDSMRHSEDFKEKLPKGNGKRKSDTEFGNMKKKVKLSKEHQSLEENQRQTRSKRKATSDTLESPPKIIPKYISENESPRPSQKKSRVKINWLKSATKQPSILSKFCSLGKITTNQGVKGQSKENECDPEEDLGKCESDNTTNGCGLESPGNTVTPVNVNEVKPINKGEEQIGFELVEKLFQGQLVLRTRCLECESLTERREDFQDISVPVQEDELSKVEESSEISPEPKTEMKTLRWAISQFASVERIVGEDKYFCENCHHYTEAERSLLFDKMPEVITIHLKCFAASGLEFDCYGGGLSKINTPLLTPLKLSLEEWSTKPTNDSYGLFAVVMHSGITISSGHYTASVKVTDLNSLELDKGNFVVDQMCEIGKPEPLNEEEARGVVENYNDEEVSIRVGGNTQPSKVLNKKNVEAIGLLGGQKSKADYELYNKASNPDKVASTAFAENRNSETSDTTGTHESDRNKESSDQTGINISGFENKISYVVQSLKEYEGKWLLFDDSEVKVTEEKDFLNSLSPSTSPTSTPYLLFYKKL
USP1/UAF1 enzyme, sequence (Q8TAF3 whole entry partner): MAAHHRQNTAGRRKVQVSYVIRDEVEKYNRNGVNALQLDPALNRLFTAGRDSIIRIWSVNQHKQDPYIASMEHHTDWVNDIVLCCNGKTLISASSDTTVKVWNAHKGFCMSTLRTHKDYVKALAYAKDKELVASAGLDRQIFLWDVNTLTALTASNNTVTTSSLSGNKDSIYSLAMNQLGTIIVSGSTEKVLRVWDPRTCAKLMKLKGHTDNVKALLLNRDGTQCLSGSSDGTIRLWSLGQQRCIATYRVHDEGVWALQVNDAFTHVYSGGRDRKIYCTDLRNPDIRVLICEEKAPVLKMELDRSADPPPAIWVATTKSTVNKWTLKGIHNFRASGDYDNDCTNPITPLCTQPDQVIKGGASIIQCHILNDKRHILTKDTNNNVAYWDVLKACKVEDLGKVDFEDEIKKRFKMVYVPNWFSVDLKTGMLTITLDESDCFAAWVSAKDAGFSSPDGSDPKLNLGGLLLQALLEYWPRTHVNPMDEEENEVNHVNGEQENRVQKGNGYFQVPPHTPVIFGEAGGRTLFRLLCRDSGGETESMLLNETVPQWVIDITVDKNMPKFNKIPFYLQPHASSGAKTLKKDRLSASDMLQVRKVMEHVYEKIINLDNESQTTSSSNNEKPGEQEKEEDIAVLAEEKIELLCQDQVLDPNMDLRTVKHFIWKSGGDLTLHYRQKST

For the molecule `Cc1cnn(C(C)C)c1-c1cc2n(n1)CCC(=O)N2Cc1ccc(-c2nc(C(F)(F)F)cn2C(C)C)cc1` [Example 73], the solubility at 24 h in data set [1] (setting [5]) and in data set [1] (setting [6]) was less than 10 µM throughout. The figures for the IC50 (in data set [2]; on USP1/UAF1 enzyme) were 100 to 500 nM and less than 100 nM, respectively. For the same molecule, the half-life at 1 μM in data set [3] and in data set [4] was less than 25 min each time.
With `COc1cccc(C)c1-c1cc2n(n1)CCCN2Cc1ccc(-c2nc(C(F)(F)F)cn2C)cc1` [Example 74, 2-(2-methoxy-6-methylphenyl)-4-(4-(1-methyl-4-(trifluoromethyl)-1H-imidazol-2-yl)benzyl)-4,5,6,7-tetrahydropyrazolo[1,5-α]pyrimidine], the values for the solubility at 24 h in data set [1] (setting [5]) and in data set [1] (setting [6]) were no less than 10 µM and less than 10 µM, respectively. Moreover, the 50% inhibitory concentration (IC50) in data set [2] was greater than 500 nM; at USP1/UAF1 enzyme it was less than 100 nM. Further, the half-life at 1 μM in data set [3] and in data set [4] was less than 25 min in each case.
As for `COc1cccc(C)c1-c1cc2n(n1)CCC(=O)N2Cc1ccc(-c2nc(C(F)(F)F)cn2C)cc1` [Example 75, 2-(2-methoxy-6-methylphenyl)-4-(4-(1-methyl-4-(trifluoromethyl)-1H-imidazol-2-yl)benzyl)-6,7-dihydropyrazolo[1,5-α]pyrimidin-5(4H)-one], the solubility at 24 h in data set [1] (setting [5]) was no less than 10 µM; in data set [1] (setting [6]), less than 10 µM. Also, the IC50 in data set [2] is 100 to 500 nM; at USP1/UAF1 enzyme, less than 100 nM. For the same molecule, the half-life at 1 μM in data set [3] and in data set [4] was less than 25 min each time.
For the molecule `CCn1cc(C(F)(F)F)nc1-c1ccc(CN2C(=O)CCn3nc(-c4c(OC)ncnc4C4CC4)cc32)cc1F` [Example 78], the solubility at 24 h in data set [1] (setting [5]) and in data set [1] (setting [6]) was less than 10 µM in each case. Besides, the IC50 (in data set [2]; at USP1/UAF1 enzyme) was less than 100 nM in each case. Moreover, the half-life at 1 μM in data set [3] and in data set [4] was greater than 25 min throughout.
For `CC(C)n1ncc(Cl)c1-c1cc2n(n1)CCC(=O)N2Cc1ccc(-c2nc(C(F)(F)F)cn2CCF)cc1` [Example 79], the solubility at 24 h in data set [1] (setting [5]) and in data set [1] (setting [6]) was less than 10 µM throughout. The 50% inhibitory concentration (IC50) (in data set [2]; at USP1/UAF1 enzyme) was less than 100 nM in each case. Further, the half-life at 1 μM in data set [3] and in data set [4] was greater than 25 min in each case.
Turning to `COc1ncnc(C2CC2)c1-c1cc2n(n1)CCC(=O)N2Cc1ccc(-n2nc(C(F)(F)F)cc2OC)cc1` [Example 80], the solubility at 24 h in data set [1] (setting [5]) and in data set [1] (setting [6]) was less than 10 µM throughout. Besides, the IC50 in data set [2] is 100 to 500 nM; on USP1/UAF1 enzyme, less than 100 nM. Also, the half-life at 1 μM in data set [3] and in data set [4] was greater than 25 min each time.
`Cc1cc(C(F)(F)F)nn1-c1ccc(CN2C(=O)CCn3nc(-c4c(Cl)cnn4C(C)C)cc32)cc1` [Example 86]: the solubility at 24 h in data set [1] (setting [5]) and in data set [1] (setting [6]) was less than 10 µM in each case. In addition, the figures for the half-inhibitory concentration (IC50) (in data set [2]; at USP1/UAF1 enzyme) were 100 to 500 nM and less than 100 nM, respectively. For the same molecule, the half-life at 1 μM in data set [3] and in data set [4] was greater than 25 min in each case.
Regarding `CC(C)n1cc(C(F)(F)F)nc1-c1ccc(CN2C(=O)CCn3nc(-c4c(Cl)cnn4C(C)C)cc32)cc1` [Example 91], the solubility at 24 h in data set [1] (setting [5]) and in data set [1] (setting [6]) was less than 10 µM each time. For the same molecule, the half-inhibitory concentration (IC50) (in data set [2]; on USP1/UAF1 enzyme) was less than 100 nM in each case. Also, the half-life at 1 μM in data set [3] and in data set [4] was greater than 25 min throughout.
For `COc1cc(C(F)(F)F)nn1-c1ccc(CN2C(=O)CCn3nc(-c4c(Cl)cnn4C(C)C)cc32)cc1` [Example 96], the solubility at 24 h in data set [1] (setting [5]) and in data set [1] (setting [6]) was less than 10 µM each time. For the same molecule, the IC50 (in data set [2]; on USP1/UAF1 enzyme) was less than 100 nM throughout. In addition, the half-life at 1 μM in data set [3] and in data set [4] was greater than 25 min in each case.
Consider `CCn1cc(C(F)(F)F)nc1-c1ccc(CN2C(=O)CCn3nc(-c4c(Cl)cnn4C(C)C)cc32)cc1` [Example 97], for which the solubility at 24 h in data set [1] (setting [5]) and in data set [1] (setting [6]) was less than 10 µM each time. Also, the 50% inhibitory concentration (IC50) (in data set [2]; on USP1/UAF1 enzyme) was less than 100 nM throughout. For the same molecule, the half-life at 1 μM in data set [3] and in data set [4] was greater than 25 min throughout.
As for `CC(C)n1ncc(Cl)c1-c1cc2n(n1)CCC(=O)N2Cc1ccc(-c2nc(C(F)(F)F)cn2C)cc1` [Example 98], the solubility at 24 h in data set [1] (setting [5]) and in data set [1] (setting [6]) was less than 10 µM each time. Further, the IC50 (in data set [2]; at USP1/UAF1 enzyme) was less than 100 nM each time. For the same molecule, the half-life at 1 μM in data set [3] and in data set [4] was greater than 25 min each time.
Turning to `COc1ncnc(C2CC2)c1-c1cc2n(n1)CCC(=O)N2Cc1ccc(-n2nc(C(F)(F)F)cc2C)c(F)c1` [Example 103], the solubility at 24 h in data set [1] (setting [5]) and in data set [1] (setting [6]) was less than 10 µM in each case. The IC50 in data set [2] was 100 to 500 nM; at USP1/UAF1 enzyme, less than 100 nM. In addition, the half-life at 1 μM in data set [3] and in data set [4] was greater than 25 min throughout.
As to `Cc1cc(C(F)(F)F)nn1-c1ccc(CN2C(=O)CCn3nc(-c4c(Cl)cnn4C(C)C)cc32)cc1F` [Example 104], the solubility at 24 h in data set [1] (setting [5]) and in data set [1] (setting [6]) was less than 10 µM throughout. Also, the IC50 is 100 to 500 nM in data set [2] and less than 100 nM at USP1/UAF1 enzyme. Besides, the half-life at 1 μM in data set [3] and in data set [4] was greater than 25 min throughout.
Consider `COc1cc(CN2C(=O)CCn3nc(-c4c(OC)ncnc4C4CC4)cc32)ccc1-c1nc(C(F)(F)F)cn1C(C)C` [Example 108], for which the results for the solubility at 24 h in data set [1] (setting [5]) and in data set [1] (setting [6]) were no less than 10 µM and less than 10 µM, respectively. Also, the IC50 (in data set [2]; on USP1/UAF1 enzyme) was less than 100 nM each time. In addition, the half-life at 1 μM in data set [3] and in data set [4] was greater than 25 min each time.
Consider `COc1cc(CN2C(=O)CCn3nc(-c4c(Cl)cnn4C(C)C)cc32)ccc1-c1nc(C(F)(F)F)cn1C(C)C` [Example 109], for which the solubility at 24 h in data set [1] (setting [5]) and in data set [1] (setting [6]) was less than 10 µM each time. The IC50 (in data set [2]; on USP1/UAF1 enzyme) was less than 100 nM each time. Further, the half-life at 1 μM in data set [3] and in data set [4] was greater than 25 min throughout.
As to `CCn1cc(C(F)(F)F)nc1-c1ccc(CN2C(=O)CCn3nc(-c4c(Cl)cnn4C(C)C)cc32)cn1` [Example 111], the solubility at 24 h in data set [1] (setting [5]) and in data set [1] (setting [6]) was less than 10 µM each time. The 50% inhibitory concentration (IC50) in data set [2] was 100 to 500 nM; at USP1/UAF1 enzyme it was less than 100 nM. The half-life at 1 μM in data set [3] and in data set [4] was greater than 25 min in each case.
In the case of `CCn1cc(C(F)(F)F)nc1-c1ccc(C(C)N2C(=O)CCn3nc(-c4c(Cl)cnn4C(C)C)cc32)cc1` (stereo not drawn) [Example 113], the solubility at 24 h in data set [1] (setting [5]) and in data set [1] (setting [6]) was less than 10 µM in each case. Besides, the concentration for half-maximal inhibition (IC50) (in data set [2]; on USP1/UAF1 enzyme) was less than 100 nM in each case. Further, the half-life at 1 μM in data set [3] and in data set [4] was less than 25 min throughout.
`CCn1cc(C(F)(F)F)nc1-c1ccc(C(C)N2C(=O)CCn3nc(-c4c(OC)ncnc4C4CC4)cc32)cc1` (stereo not drawn) [Example 114]: the solubility at 24 h in data set [1] (setting [5]) and in data set [1] (setting [6]) was no less than 10 µM each time. The values for the IC50 (in data set [2]; at USP1/UAF1 enzyme) were 100 to 500 nM and less than 100 nM, respectively. The half-life at 1 μM was less than 25 min in data set [3] and greater than 25 min in data set [4].
On to `CCOc1cc(C(F)(F)F)nn1-c1ccc(CN2C(=O)CCn3nc(-c4c(Cl)cnn4C(C)C)cc32)cc1` [Example 115], for which the solubility at 24 h in data set [1] (setting [5]) and in data set [1] (setting [6]) was less than 10 µM in each case. For the same molecule, the 50% inhibitory concentration (IC50) (in data set [2]; at USP1/UAF1 enzyme) was less than 100 nM in each case. Also, the half-life at 1 μM in data set [3] and in data set [4] was greater than 25 min each time.
For the molecule `CC(C)n1ncc(Cl)c1-c1cc2n(n1)CCC(=O)N2Cc1ccc(-c2cn(C)c(C(F)(F)F)n2)cc1` [Example 116], the solubility at 24 h in data set [1] (setting [5]) and in data set [1] (setting [6]) was less than 10 µM each time. Also, the values for the IC50 (in data set [2]; at USP1/UAF1 enzyme) were 100 to 500 nM and less than 100 nM, respectively. Moreover, the half-life at 1 μM in data set [3] and in data set [4] was greater than 25 min throughout.
With `CCn1cc(Cl)nc1-c1ccc(CN2C(=O)CCn3nc(-c4c(Cl)cnn4C(C)C)cc32)cc1` [Example 118], the solubility at 24 h in data set [1] (setting [5]) and in data set [1] (setting [6]) was less than 10 µM throughout. The concentration for half-maximal inhibition (IC50) (in data set [2]; at USP1/UAF1 enzyme) was less than 100 nM throughout. Moreover, the half-life at 1 μM in data set [3] and in data set [4] was less than 25 min each time.
As for `CCn1cc(C(F)(F)F)nc1-c1ccc(C(C)N2C(=O)CCn3nc(-c4c(Cl)cnn4C(C)C)cc32)cc1F` (stereo not drawn) [Example 119], the solubility at 24 h in data set [1] (setting [5]) and in data set [1] (setting [6]) was less than 10 µM each time. Moreover, the 50% inhibitory concentration (IC50) (in data set [2]; on USP1/UAF1 enzyme) was less than 100 nM in each case. Besides, the half-life at 1 μM in data set [3] was less than 25 min; in data set [4], greater than 25 min.
